PMC6864627, “Synthesis of Novel Triazinoindole-Based Thiourea Hybrid: A Study on α-Glucosidase Inhibitors and Their Molecular Docking” (Molecules, 2019)

Target: T1, α-glucosidase (Saccharomyces cerevisiae, UniProt P53341)
T1 construct: purchased Sigma Inc
Test: α-glucosidase inhibition assay
Type: biochemical
Settings: 50 mM phosphate buffer pH 6.8; 0.057 units enzyme; standard acarbose
Procedure: The α-glucosidase activity was executed according to Fazal et al.. The following chemicals were used (concentrations): • 70 μL of 50 mM phosphate buffer (pH 6.8); • 10 μL (0.5 mM in methanol) test compounds; and • 10 μL (0.057 units, Sigma Inc.) of enzyme solution in buffer. For details on the experiment, kindly see Reference.

T1 sequence (P53341 whole entry): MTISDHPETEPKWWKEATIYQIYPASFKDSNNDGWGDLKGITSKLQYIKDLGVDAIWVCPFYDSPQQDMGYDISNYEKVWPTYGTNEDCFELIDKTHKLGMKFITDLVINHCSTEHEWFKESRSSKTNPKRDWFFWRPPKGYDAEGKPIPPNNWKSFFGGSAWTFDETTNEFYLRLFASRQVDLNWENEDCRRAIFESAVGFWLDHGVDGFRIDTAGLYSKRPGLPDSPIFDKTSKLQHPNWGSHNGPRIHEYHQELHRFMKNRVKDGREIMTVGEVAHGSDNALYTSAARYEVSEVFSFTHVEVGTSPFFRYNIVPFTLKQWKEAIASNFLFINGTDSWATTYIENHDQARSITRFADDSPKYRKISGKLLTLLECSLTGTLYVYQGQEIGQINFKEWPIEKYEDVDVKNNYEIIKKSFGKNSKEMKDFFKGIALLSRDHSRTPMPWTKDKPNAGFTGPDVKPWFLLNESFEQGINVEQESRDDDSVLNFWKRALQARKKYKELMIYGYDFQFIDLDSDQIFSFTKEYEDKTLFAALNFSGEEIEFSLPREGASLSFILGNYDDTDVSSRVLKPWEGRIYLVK

| Compound | IC50 |
| --- | --- |
| COc1ccc(C(CSc2nnc3c(n2)[nH]c2ccccc23)=NNC(=S)Nc2cccc(Cl)c2Cl)cc1 [Compound 1, 2-(2-((5H-[1,2,4]triazino [5,6-b]indol-3-yl)thio)-1-(4-methoxyphenyl)ethylidene)-N-(2,3-dichlorophenyl)hydrazine-1-carbothioamide] | 1.3 ± 0.05 µM |
| COc1ccc(C(CSc2nnc3c(n2)[nH]c2ccccc23)=NNC(=S)Nc2ccc([N+](=O)[O-])cc2)cc1 [Compound 2, 2-(2-((5H-[1,2,4]triazino [5,6-b]indol-3-yl)thio)-1-(4-methoxyphenyl)ethylidene)-N-(4-nitrophenyl)hydrazine-1-carbothioamide] | 2.6 ± 0.05 µM |
| S=C(NN=C(CSc1nnc2c(n1)[nH]c1ccccc12)c1ccc(-c2ccccc2)cc1)Nc1cccc(Cl)c1Cl [Compound 3, 2-(2-((5H-[1,2,4]triazino [5,6-b]indol-3-yl)thio)-1-([1,1′-biphenyl]-4-yl)ethylidene)-N-(2,3-dichlorophenyl)hydrazine-1-carbothioamide] | 7.5 ± 0.2 µM |
| Cc1ccc(NC(=S)NN=C(CSc2nnc3c(n2)[nH]c2ccccc23)c2ccc(-c3ccccc3)cc2)cc1 [Compound 4, 2-(2-((5H-[1,2,4]triazino[5,6-b]indol-3-yl)thio)-1-([1,1′-biphenyl]-4-yl)ethylidene)-N-(p-tolyl)hydrazine-1-carbothioamide] | 12.8 ± 0.3 µM |
| COc1ccc(C(CSc2nnc3c(n2)[nH]c2ccccc23)=NNC(=S)Nc2ccc(C)cc2)cc1 [Compound 5, 2-(2-((5H-[1,2,4]triazino[5,6-b]indol-3-yl)thio)-1-(4-methoxyphenyl)ethylidene)-N-(p-tolyl)hydrazine-1-carbothioamide] | 5.2 ± 0.3 µM |
| S=C(NN=C(CSc1nnc2c(n1)[nH]c1ccccc12)c1ccc(-c2ccccc2)cc1)Nc1ccccc1Br [Compound 6, 2-(2-((5H-[1,2,4]triazino[5,6-b]indol-3-yl)thio)-1-([1,1′-biphenyl]-4-yl)ethylidene)-N-(2-bromophenyl)hydrazine-1-carbothioamide] | 25.3 ± 0.5 µM |
| Cc1ccc(C(CSc2nnc3c(n2)[nH]c2ccccc23)=NNC(=S)Nc2ccccc2Br)cc1 [Compound 7, 2-(2-((5H-[1,2,4]triazino[5,6-b]indol-3-yl)thio)-1-(p-tolyl)ethylidene)-N-(2-bromophenyl)hydrazine-1-carbothioamide] | 33.3 ± 0.6 µM |
| Cc1ccc(NC(=S)NN=C(CSc2nnc3c(n2)[nH]c2ccccc23)c2ccc(C)cc2)cc1 [Compound 8, 2-(2-((5H-[1,2,4]triazino[5,6-b]indol-3-yl)thio)-1-(p-tolyl)ethylidene)-N-(p-tolyl)hydrazine-1-carbothioamide] | 17.5 ± 0.3 µM |
| O=[N+]([O-])c1ccc(C(CSc2nnc3c(n2)[nH]c2ccccc23)=NNC(=S)Nc2ccccc2)cc1 [Compound 9, 2-(2-((5H-[1,2,4]triazino[5,6-b]indol-3-yl)thio)-1-(4-nitrophenyl)ethylidene)-N-phenylhydrazine-1-carbothioamide] | 6.8 ± 0.1 µM |
| COc1ccc(C(CSc2nnc3c(n2)[nH]c2ccccc23)=NNC(=S)Nc2ccccc2Br)cc1 [Compound 10, 2-(2-((5H-[1,2,4]triazino[5,6-b]indol-3-yl)thio)-1-(4-methoxyphenyl)ethylidene)-N-(2-bromophenyl)hydrazine-1-carbothioamide] | 35.8 ± 0.8 µM |
| O=[N+]([O-])c1cccc(C(CSc2nnc3c(n2)[nH]c2ccccc23)=NNC(=S)Nc2ccccc2Br)c1 [Compound 11, 2-(2-((5H-[1,2,4]triazino[5,6-b]indol-3-yl)thio)-1-(3-nitrophenyl)ethylidene)-N-(2-bromophenyl)hydrazine-1-carbothioamide] | 26.8 ± 0.7 µM |
| Cc1ccc(NC(=S)NN=C(CSc2nnc3c(n2)[nH]c2ccccc23)c2cccc([N+](=O)[O-])c2)cc1 [Compound 12, 2-(2-((5H-[1,2,4]triazino[5,6-b]indol-3-yl)thio)-1-(3-nitrophenyl)ethylidene)-N-(p-tolyl)hydrazine-1-carbothioamide] | 8.3 ± 0.2 µM |
| Cc1cccc(C)c1NC(=S)NN=C(CSc1nnc2c(n1)[nH]c1ccccc12)c1ccc(-c2ccccc2)cc1 [Compound 13, 2-(2-((5H-[1,2,4]triazino[5,6-b]indol-3-yl)thio)-1-([1,1′-biphenyl]-4-yl)ethylidene)-N-(2,6-dimethylphenyl)hydrazine-1-carbothioamide] | 23.3 ± 0.5 µM |
| Cc1cccc(C)c1NC(=S)NN=C(CSc1nnc2c(n1)[nH]c1ccccc12)c1cccc([N+](=O)[O-])c1 [Compound 14, 2-(2-((5H-[1,2,4]triazino[5,6-b]indol-3-yl)thio)-1-(3-nitrophenyl)ethylidene)-N-(2,6-dimethylphenyl)hydrazine-1-carbothioamide] | 7.5 ± 0.2 µM |
| COc1ccc(C(CSc2nnc3c(n2)[nH]c2ccccc23)=NNC(=S)Nc2c(C)cccc2C)cc1 [Compound 15, 2-(2-((5H-[1,2,4]triazino[5,6-b]indol-3-yl)thio)-1-(4-methoxyphenyl)ethylidene)-N-(2,6-dimethylphenyl)hydrazine-1-carbothioamide] | 5.8 ± 0.2 µM |
| COc1ccc(C(CSc2nnc3c(n2)[nH]c2ccccc23)=NNC(=S)Nc2ccc(F)cc2)cc1 [Compound 16, 2-(2-((5H-[1,2,4]triazino[5,6-b]indol-3-yl)thio)-1-(4-methoxyphenyl)ethylidene)-N-(4-fluorophenyl)hydrazine-1-carbothioamide] | 1.8 ± 0.2 µM |
| O=[N+]([O-])c1cccc(C(CSc2nnc3c(n2)[nH]c2ccccc23)=NNC(=S)Nc2ccccc2)c1 [Compound 17, 2-(2-((5H-[1,2,4]triazino[5,6-b]indol-3-yl)thio)-1-(3-nitrophenyl)ethylidene)-N-phenylhydrazine-1-carbothioamide] | 8.8 ± 0.2 µM |
| COc1ccc(C(CSc2nnc3c(n2)[nH]c2ccccc23)=NNC(=S)Nc2ccc(Cl)c(Cl)c2)cc1 [Compound 18, 2-(2-((5H-[1,2,4]triazino[5,6-b]indol-3-yl)thio)-1-(4-methoxyphenyl)ethylidene)-N-(3,4-dichlorophenyl)hydrazine-1-carbothioamide] | 2.3 ± 0.05 µM |
| S=C(NN=C(CSc1nnc2c(n1)[nH]c1ccccc12)c1ccc(-c2ccccc2)cc1)Nc1ccc(Cl)c(Cl)c1 [Compound 19, 2-(2-((5H-[1,2,4]triazino[5,6-b]indol-3-yl)thio)-1-([1,1′-biphenyl]-4-yl)ethylidene)-N-(3,4-dichlorophenyl)hydrazine-1-carbothioamide] | 2.3 ± 0.05 µM |
| Cc1ccc(C(CSc2nnc3c(n2)[nH]c2ccccc23)=NNC(=S)Nc2c(C)cccc2C)cc1 [Compound 20, 2-(2-((5H-[1,2,4]triazino[5,6-b]indol-3-yl)thio)-1-(p-tolyl)ethylidene)-N-(2,6-dimethylphenyl)hydrazine-1-carbothioamide] | 7.5 ± 0.2 µM |
| Cc1ccc(C(CSc2nnc3c(n2)[nH]c2ccccc23)=NNC(=S)Nc2ccc(Cl)c(Cl)c2)cc1 [Compound 21, 2-(2-((5H-[1,2,4]triazino[5,6-b]indol-3-yl)thio)-1-(p-tolyl)ethylidene)-N-(3,4-dichlorophenyl)hydrazine-1-carbothioamide] | 4.8 ± 0.2 µM |
| COc1ccc(C(CSc2nnc3c(n2)[nH]c2ccccc23)=NNC(=S)Nc2cccc(C)c2C)cc1 [Compound 22, 2-(2-((5H-[1,2,4]triazino[5,6-b]indol-3-yl)thio)-1-(4-methoxyphenyl)ethylidene)-N-(2,3-dimethylphenyl)hydrazine-1-carbothioamide] | 5.9 ± 0.1 µM |
| O=[N+]([O-])c1cccc(C(CSc2nnc3c(n2)[nH]c2ccccc23)=NNC(=S)Nc2cccc(Cl)c2Cl)c1 [Compound 23, 2-(2-((5H-[1,2,4]triazino[5,6-b]indol-3-yl)thio)-1-(3-nitrophenyl)ethylidene)-N-(2,3-dichlorophenyl)hydrazine-1-carbothioamide] | 1.3 ± 0.01 µM |
| S=C(NN=C(CSc1nnc2c(n1)[nH]c1ccccc12)c1ccc(-c2ccccc2)cc1)Nc1ccccc1 [Compound 24, 2-(2-((5H-[1,2,4]triazino[5,6-b]indol-3-yl)thio)-1-([1,1′-biphenyl]-4-yl)ethylidene)-N-phenylhydrazine-1-carbothioamide] | 15.3 ± 0.3 µM |
| COc1ccc(C(CSc2nnc3c(n2)[nH]c2ccccc23)=NNC(=S)Nc2ccccc2)cc1 [Compound 25, 2-(2-((5H-[1,2,4]triazino[5,6-b]indol-3-yl)thio)-1-(4-methoxyphenyl)ethylidene)-N-phenylhydrazine-1-carbothioamide] | 9.3 ± 0.3 µM |
